# Reference: patent US20210311075A1, “METHODS FOR DETECTING DISORDERS RELATED TO CALCIUM DISCHARGE FROM INTRACELLULAR STORES” (The Regents of the University of California, priority 2017, published 2021)
# Legend:
# Type in all cases: cell-based
# [1] = system: T lymphocytes isolated from RyR163C mice; experiment: Fura-2 intracellular calcium imaging in T lymphocytes from RyR163C mice; details: for Δ1/Δ2 ratio: preincubated, fura-2
# Description: (§1) FIGS. 3A and 3B show intracellular calcium measurements in T lymphocytes. […] Shown are average traces recorded from at least 20 cells in one representative experiment.
# [2] = system: T lymphocytes isolated from 5×FAD mice; experiment: Fura-2 intracellular calcium imaging in T lymphocytes from 5×FAD mice; details: SERCA blocker applied in about 0 mM extracellular calcium; 5×FAD T lymphocytes
# Description: as §1
# [3] = system: T lymphocytes isolated from control WT mice; experiment: Fura-2 intracellular calcium imaging in T lymphocytes from wild-type mice; details: SERCA blocker applied in about 0 mM extracellular calcium; WT cells, compared to 5×FAD and RyR163C
# Description: as §1
compound,measurement,setting,value
O=C1CN(/N=C/c2ccc(-c3ccc([N+](=O)[O-])cc3)o2)C(O)=N1 [dantrolene],basal intracellular calcium levels,[1]; dantrolene 50 μM,reducing
same,responses to thapsigargin,[1]; dantrolene 50 μM,increasing
same,Δ1/Δ2 ratio,[1]; dantrolene 50 μM,reduced
C/C=C(/C)C(=O)O[C@H]1C(C)=C2[C@H]([C@@H]1OC(=O)CCCCCCC)[C@@](C)(OC(C)=O)C[C@H](OC(=O)CCC)[C@@]1(O)[C@H]2OC(=O)[C@@]1(C)O [thapsigargin],intracellular calcium transients evoked (Δ2=F3−F2),[2],barely detectable
same,intracellular calcium transients evoked (Δ2=F3−F2),[1]; SERCA blocker applied in about 0 mM extracellular calcium,barely detectable
same,intracellular calcium transients evoked (Δ2=F3−F2),[3],larger
ryanodine,basal intracellular calcium levels,[1]; ryanodine 800 μM,reducing
same,responses to thapsigargin,[1]; ryanodine 800 μM,increasing
same,Δ1/Δ2 ratio,[1]; ryanodine 800 μM,reduced
